Experimental findings from ChEMBL document CHEMBL5550211 (J Med Chem, 2024) are described below.

Data set [1] is described as follows: Substrate activity at BCRP in LLC-PK1 cells assessed as efflux ratio of apparent permeability from basolateral to apical side over apical to basolateral side. In kind it is ADME, cell-based, Sus scrofa. Conditions: pig.
Data set [2] is described as follows: Substrate activity at P-gp in LLC-PK1 cells assessed as efflux ratio of apparent permeability from basolateral to apical side over apical to basolateral side. In kind it is ADME, cell-based, Sus scrofa. To be noted: pig.
A short description of data set [3]: Apparent permeability across apical to basolateral side in LLC-PK1 cells. The format is ADME, cell-based, Sus scrofa. To be noted: pig.
Data set [4] deals with T1, Serine/threonine-protein kinase B-raf (Homo sapiens, UniProt P15056, V600E). Kind of data set: Inhibition of BRAF V600E mutant in human A-375 cells assessed as reduction in ERK phosphorylation. The format is cell-based.
For data set [5], the target named is T1, Serine/threonine-protein kinase B-raf. Kind of data set: Inhibition of 6-His tagged BRAF V600E mutant (445 to 723 residues) (unknown origin).
A short description of data set [6]: Dissociation constant, pKa of the compound. In kind it is physicochemical.

T1 sequence (P15056 2-766 V600E limits assumed): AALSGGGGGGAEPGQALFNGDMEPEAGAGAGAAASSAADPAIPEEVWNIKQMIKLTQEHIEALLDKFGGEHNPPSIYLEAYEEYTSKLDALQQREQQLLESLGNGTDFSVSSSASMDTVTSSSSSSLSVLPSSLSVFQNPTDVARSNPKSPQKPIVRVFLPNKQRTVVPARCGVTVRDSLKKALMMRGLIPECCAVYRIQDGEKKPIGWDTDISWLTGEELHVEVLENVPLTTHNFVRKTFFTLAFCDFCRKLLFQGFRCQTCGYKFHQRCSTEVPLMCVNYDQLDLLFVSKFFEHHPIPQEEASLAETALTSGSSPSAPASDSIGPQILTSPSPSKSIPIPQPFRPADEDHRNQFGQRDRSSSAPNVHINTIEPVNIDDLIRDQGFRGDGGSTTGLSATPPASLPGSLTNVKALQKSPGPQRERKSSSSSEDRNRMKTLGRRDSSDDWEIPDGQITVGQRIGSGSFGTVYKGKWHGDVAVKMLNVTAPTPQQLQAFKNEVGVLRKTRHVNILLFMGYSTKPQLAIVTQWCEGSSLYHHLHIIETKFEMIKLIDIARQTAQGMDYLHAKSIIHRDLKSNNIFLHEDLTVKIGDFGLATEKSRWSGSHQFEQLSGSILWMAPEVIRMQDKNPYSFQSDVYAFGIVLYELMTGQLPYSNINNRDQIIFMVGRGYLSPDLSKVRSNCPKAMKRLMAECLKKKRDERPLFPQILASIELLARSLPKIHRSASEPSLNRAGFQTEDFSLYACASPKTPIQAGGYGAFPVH

For the compound `CCCS(=O)(=O)Nc1ccc(F)c(C(=O)c2c[nH]c3ncc(-c4ccc(Cl)cc4)cc23)c1F` [VEMURAFENIB], the Ratio in data set [1] is 15.2; in data set [2], 21.7. In data set [3], the Papp A→B was 3 ×10⁻⁶ cm/s.
Take `Cc1c(Nc2c(F)ccc(NS(=O)(=O)CC3CC3)c2Cl)ccc2ncn(C)c(=O)c12`: the results for the Ratio in data set [1] and in data set [2] were 1.1 and 1.5, respectively. The IC50 in data set [4] came to 93.6 nM; in data set [5], 46.1 nM. Also, the apical-to-basolateral permeability (Papp A→B) in data set [3] was determined as 29 ×10⁻⁶ cm/s.
Take `Cc1c(Nc2c(F)ccc(NS(=O)(=O)CC(C)C)c2Cl)ccc2ncn(C)c(=O)c12`: the figures for the Ratio in data set [1] and in data set [2] were 1.3 and 1.6, respectively. For the same compound, the IC50 was found to be 122 nM in data set [4] and 50.8 nM in data set [5]. Besides, the Papp A→B in data set [3] is 27 ×10⁻⁶ cm/s.
For the compound `CCCS(=O)(=O)Nc1ccc(F)c(Nc2ccc3ncn(C)c(=O)c3c2OC)c1Cl`, the Papp A→B in data set [3] was found to be 22 ×10⁻⁶ cm/s.
As for `CCCS(=O)(=O)Nc1ccc(F)c(Nc2ccc3ncn(CC4CC4)c(=O)c3c2C)c1Cl`, the results for the Ratio in data set [1] and in data set [2] were 1.6 and 1.1, respectively. The 50% inhibitory concentration (IC50) was 285 nM in data set [4] and 17.5 nM in data set [5]. In addition, the Papp A→B in data set [3] turned out to be 21 ×10⁻⁶ cm/s.
For the compound `CCCS(=O)(=O)Nc1ccc(F)c(Nc2ccc3ncn(C4CC4)c(=O)c3c2C)c1Cl`, the Ratio in data set [1] and in data set [2] was 1.6 throughout. For the same compound, the IC50 stood at 61.5 nM in data set [4] and 11.7 nM in data set [5]. The Papp A→B in data set [3] was 25 ×10⁻⁶ cm/s.
Turning to `CCCS(=O)(=O)Nc1ccc(F)c(Sc2ccc3ncn(C)c(=O)c3c2)c1F`, the Papp A→B in data set [3] worked out at 19 ×10⁻⁶ cm/s.
As to `CCCS(=O)(=O)Nc1ccc(F)c(Nc2ccc3ncn(C)c(=O)c3c2F)c1Cl`, the Papp A→B in data set [3] turned out to be 33 ×10⁻⁶ cm/s.
Regarding `CCCS(=O)(=O)Nc1ccc(Cl)c(N(C)c2ccc3ncn(C)c(=O)c3c2)c1F`, the Ratio in data set [1] came out at 3.9; in data set [2], 4.1. Also, the results for the IC50 in data set [4] and in data set [5] were 178 nM and 28.4 nM, respectively. Moreover, the Papp A→B in data set [3] was found to be 37 ×10⁻⁶ cm/s.
Take `CCCS(=O)(=O)Nc1ccc(F)c(N(C)c2ccc3ncn(C)c(=O)c3c2)c1F`: the Ratio in data set [1] is reported as 2.6; in data set [2] it was 3.2. Further, the IC50 in data set [4] stood at 73.7 nM; in data set [5] it was 69.2 nM. Besides, the Papp A→B in data set [3] is 41 ×10⁻⁶ cm/s.
The corresponding values for `CCC(C)S(=O)(=O)Nc1ccc(F)c(Nc2ccc3ncn(C)c(=O)c3c2C)c1Cl` (stereo not given) are 0.8, 1.2, 113 nM, 77.4 nM and 27 ×10⁻⁶ cm/s.
The corresponding values for `CCCS(=O)(=O)Nc1ccc(F)c(Nc2ccc3ncn(C)c(=O)c3c2)c1Cl` are 6, 4.1, 27.3 nM, 13.8 nM and 39 ×10⁻⁶ cm/s.
For `CCCS(=O)(=O)Nc1ccc(F)c(N(CC)c2ccc3ncn(C)c(=O)c3c2)c1F`, the Ratio in data set [1] and in data set [2] was 1.5 throughout. Besides, the IC50 in data set [4] and in data set [5] was 197 nM each time. In data set [3], the Papp A→B came to 19 ×10⁻⁶ cm/s.
For the compound `CCS(=O)(=O)Nc1ccc(F)c(Nc2ccc3ncn(C)c(=O)c3c2C)c1Cl`, the Ratio in data set [1] is on record as 1.3; in data set [2], 1.8. The results for the IC50 in data set [4] and in data set [5] were 169 nM and 182 nM, respectively. The Papp A→B in data set [3] was found to be 36 ×10⁻⁶ cm/s.
Regarding `CCCS(=O)(=O)Nc1ccc(Cl)c(Nc2ccc3ncn(C)c(=O)c3c2)c1F`, the Ratio in data set [1] is recorded as 18.9; in data set [2] it was 7.1. For the same compound, the IC50 amounted to 142 nM in data set [4] and 60.3 nM in data set [5]. In addition, the Papp A→B in data set [3] was determined as 48 ×10⁻⁶ cm/s.
Regarding `Cc1c(Nc2c(F)ccc(NS(=O)(=O)C3CC3)c2Cl)ccc2ncn(C)c(=O)c12`, the Papp A→B in data set [3] worked out at 22 ×10⁻⁶ cm/s.
Turning to `CC(C)(C)c1nc(-c2cccc(NS(=O)(=O)c3c(F)cccc3F)c2F)c(-c2ccnc(N)n2)s1` [DABRAFENIB], the Ratio in data set [1] was 11.7; in data set [2], 10.1. Besides, the Papp A→B in data set [3] worked out at 29 ×10⁻⁶ cm/s.
Consider `CCCS(=O)(=O)Nc1ccc(F)c(Nc2ccc3ncn(C)c(=O)c3c2Cl)c1Cl`, for which, in data set [3], the apparent permeability from apical to basolateral (Papp A→B) came out at 24 ×10⁻⁶ cm/s.
For the compound `CCCS(=O)(=O)Nc1ccc(F)c(N(C)c2ccc3ncn(C)c(=O)c3c2)c1Cl`, the Ratio in data set [1] is 1.3; in data set [2], 3.6. Moreover, the IC50 in data set [4] came to 177 nM; in data set [5] it was 54.9 nM. Besides, the Papp A→B in data set [3] stood at 28 ×10⁻⁶ cm/s.
For the compound `CCCS(=O)(=O)Nc1ccc(F)c(Nc2ccc3ncn(C)c(=O)c3c2C)c1Cl`, in data set [6], the pKa was 7.88. Further, the results for the Ratio in data set [1] and in data set [2] were 1.2 and 1.3, respectively. The IC50 in data set [4] was 35.5 nM; in data set [5] it was 14.5 nM. Moreover, the Papp A→B in data set [3] is 28 ×10⁻⁶ cm/s.
As for `CCCS(=O)(=O)Nc1ccc(F)c(Oc2ccc3ncn(C)c(=O)c3c2)c1F`, the Papp A→B in data set [3] was determined as 29 ×10⁻⁶ cm/s.
In the case of `CCCS(=O)(=O)Nc1ccc(F)c(Nc2ccc3ncn(C(C)C)c(=O)c3c2C)c1Cl`, the Ratio is 1.5 in data set [1] and 1.4 in data set [2]. The IC50 in data set [4] came out at 187 nM; in data set [5], 20 nM. In addition, the Papp A→B in data set [3] worked out at 20 ×10⁻⁶ cm/s.
With `CCCS(=O)(=O)Nc1ccc(F)c(Nc2ccc3ncn(CC)c(=O)c3c2C)c1Cl`, the Ratio in data set [1] and in data set [2] was 0.9 in each case. The IC50 stood at 27 nM in data set [4] and 3.61 nM in data set [5]. The Papp A→B in data set [3] was determined as 30 ×10⁻⁶ cm/s.
Regarding `CCCS(=O)(=O)Nc1ccc(F)c(Nc2ccc3ncn(C)c(=O)c3c2)c1F`, the Ratio was found to be 21.3 in data set [1] and 11.1 in data set [2]. Besides, the IC50 in data set [4] stood at 69.1 nM; in data set [5], 88 nM. For the same compound, the Papp A→B in data set [3] came out at 26 ×10⁻⁶ cm/s.
With `COC(=O)N[C@@H](C)CNc1nccc(-c2cn(C(C)C)nc2-c2cc(Cl)cc(NS(C)(=O)=O)c2F)n1` [ENCORAFENIB], the Ratio in data set [2] turned out to be 26.3. Further, in data set [3], the apparent permeability from apical to basolateral (Papp A→B) stood at 11 ×10⁻⁶ cm/s.
